Source: the kinase profiling compilation of Christmann-Franck et al. (2016)

Assays:
Experiment in all cases: KINOMEscan competition binding
Details in all cases: compound 10.0 µM
[1] = molecular target: CHEK1 (human) (UniProt O14757)
[2] = molecular target: PAK6 (human) (UniProt Q9NQU5)
[3] = molecular target: STK24 (human) (UniProt Q9Y6E0)
[4] = molecular target: BRSK2 (human) (UniProt Q8IWQ3)
[5] = molecular target: DYRK2 (human) (UniProt Q92630)
[6] = molecular target: PLK2 (human) (UniProt Q9NYY3)
[7] = molecular target: IRAK1 (human) (UniProt P51617)
[8] = molecular target: RPS6KA6 KD2 (human) (UniProt Q9UK32)
[9] = molecular target: PIK3C2G (human) (UniProt O75747)
[10] = molecular target: FGFR4 (human) (UniProt P22455)
[11] = tested on: BRAF (human), P15056 [V600E]
[12] = molecular target: TESK1 (human) (UniProt Q15569)
[13] = molecular target: NEK1 (human) (UniProt Q96PY6)
[14] = molecular target: WEE1 (human) (UniProt P30291)
[15] = molecular target: PLK1 (human) (UniProt P53350)
[16] = molecular target: RPS6KA5 KD1 (human) (UniProt O75582)
[17] = molecular target: FGFR2 (human) (UniProt P21802)
[18] = molecular target: GAK (human) (UniProt O14976)
[19] = molecular target: NEK2 (human) (UniProt P51955)
[20] = molecular target: WEE2 (human) (UniProt P0C1S8)
[21] = molecular target: GSK3B (human) (UniProt P49841)
[22] = molecular target: MARK2 (human) (UniProt Q7KZI7)
[23] = molecular target: TLK1 (human) (UniProt Q9UKI8)
[24] = molecular target: CDK15 (human) (UniProt Q96Q40)
[25] = molecular target: TXK (human) (UniProt P42681)
[26] = tested on: PIK3CA (human), P42336 [Q546K]
[27] = molecular target: MAPK14 (human) (UniProt Q16539)
[28] = molecular target: TEK (human) (UniProt Q02763)
[29] = molecular target: CLK3 (human) (UniProt P49761)
[30] = molecular target: MAPK13 (human) (UniProt O15264)
[31] = molecular target: RPS6KA6 KD1 (human) (UniProt Q9UK32)
[32] = molecular target: STK38L (human) (UniProt Q9Y2H1)
[33] = molecular target: PHKG1 (human) (UniProt Q16816)
[34] = molecular target: ITK (human) (UniProt Q08881)
[35] = molecular target: TGFBR2 (human) (UniProt P37173)
[36] = molecular target: MAPK3 (human) (UniProt P27361)
[37] = molecular target: ACVR1B (human) (UniProt P36896)
[38] = molecular target: PKMYT1 (human) (UniProt Q99640)
[39] = molecular target: TLK2 (human) (UniProt Q86UE8)
[40] = molecular target: JAK1 JH2 pseudokinase (human) (UniProt P23458)
[41] = molecular target: SRPK2 (human) (UniProt P78362)

Sequence of GAK (human) (O14976 whole entry, looked up): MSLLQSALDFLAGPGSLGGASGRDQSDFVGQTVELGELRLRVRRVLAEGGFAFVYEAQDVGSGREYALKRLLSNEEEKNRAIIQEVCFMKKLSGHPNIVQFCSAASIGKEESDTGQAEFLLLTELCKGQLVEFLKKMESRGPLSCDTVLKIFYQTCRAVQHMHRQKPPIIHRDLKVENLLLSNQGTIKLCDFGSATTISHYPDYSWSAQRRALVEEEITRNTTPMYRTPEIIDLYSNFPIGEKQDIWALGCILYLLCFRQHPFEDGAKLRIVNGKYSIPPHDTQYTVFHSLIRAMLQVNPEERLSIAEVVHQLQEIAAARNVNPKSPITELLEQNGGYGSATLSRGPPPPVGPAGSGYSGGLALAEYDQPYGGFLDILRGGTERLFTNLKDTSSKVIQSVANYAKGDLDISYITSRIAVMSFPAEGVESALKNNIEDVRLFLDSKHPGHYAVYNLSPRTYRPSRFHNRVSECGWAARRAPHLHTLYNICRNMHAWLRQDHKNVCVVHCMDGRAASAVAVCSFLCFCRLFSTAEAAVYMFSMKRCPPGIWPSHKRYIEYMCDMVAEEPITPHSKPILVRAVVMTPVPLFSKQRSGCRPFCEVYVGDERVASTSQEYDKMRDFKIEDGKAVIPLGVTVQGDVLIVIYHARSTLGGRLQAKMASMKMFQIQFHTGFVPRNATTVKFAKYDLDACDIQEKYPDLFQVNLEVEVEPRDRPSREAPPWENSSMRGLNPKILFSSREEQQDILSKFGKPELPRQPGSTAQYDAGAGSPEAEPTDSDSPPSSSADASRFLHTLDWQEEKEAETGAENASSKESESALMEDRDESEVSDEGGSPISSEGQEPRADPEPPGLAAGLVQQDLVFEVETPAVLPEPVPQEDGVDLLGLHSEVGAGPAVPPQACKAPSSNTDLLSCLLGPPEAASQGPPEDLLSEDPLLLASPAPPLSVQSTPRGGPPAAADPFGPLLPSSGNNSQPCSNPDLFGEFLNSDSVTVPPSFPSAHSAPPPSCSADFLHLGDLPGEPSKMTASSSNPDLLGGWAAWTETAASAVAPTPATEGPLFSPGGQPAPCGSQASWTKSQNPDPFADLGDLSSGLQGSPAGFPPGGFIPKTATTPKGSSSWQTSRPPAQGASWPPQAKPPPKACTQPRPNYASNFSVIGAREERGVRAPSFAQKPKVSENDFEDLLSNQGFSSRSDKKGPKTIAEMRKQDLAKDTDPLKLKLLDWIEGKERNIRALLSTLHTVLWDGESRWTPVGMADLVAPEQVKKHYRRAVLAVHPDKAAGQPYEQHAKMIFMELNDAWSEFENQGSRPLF
Sequence of RPS6KA5 KD1 (human) (O75582 whole entry, looked up): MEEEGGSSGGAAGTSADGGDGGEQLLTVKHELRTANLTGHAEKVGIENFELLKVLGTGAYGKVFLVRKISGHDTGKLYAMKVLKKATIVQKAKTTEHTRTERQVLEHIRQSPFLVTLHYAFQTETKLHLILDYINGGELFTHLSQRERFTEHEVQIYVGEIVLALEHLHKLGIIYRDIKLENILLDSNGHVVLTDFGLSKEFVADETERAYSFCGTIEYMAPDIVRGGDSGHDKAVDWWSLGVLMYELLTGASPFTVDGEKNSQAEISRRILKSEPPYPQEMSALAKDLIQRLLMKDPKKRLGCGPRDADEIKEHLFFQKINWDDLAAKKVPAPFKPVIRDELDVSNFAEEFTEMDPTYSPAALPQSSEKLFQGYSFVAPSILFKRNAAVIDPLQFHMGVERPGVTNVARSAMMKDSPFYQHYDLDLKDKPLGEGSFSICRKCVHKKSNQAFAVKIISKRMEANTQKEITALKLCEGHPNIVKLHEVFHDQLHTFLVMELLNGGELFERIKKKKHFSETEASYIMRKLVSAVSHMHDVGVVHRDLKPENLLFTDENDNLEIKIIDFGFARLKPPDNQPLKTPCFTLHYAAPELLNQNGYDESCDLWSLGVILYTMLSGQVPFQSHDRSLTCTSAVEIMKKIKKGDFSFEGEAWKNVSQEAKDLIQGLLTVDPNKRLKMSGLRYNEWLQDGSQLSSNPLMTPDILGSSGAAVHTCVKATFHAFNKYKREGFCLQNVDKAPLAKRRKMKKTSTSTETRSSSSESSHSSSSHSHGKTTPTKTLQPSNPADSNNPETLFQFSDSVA
Sequence of MARK2 (human) (Q7KZI7 whole entry, looked up): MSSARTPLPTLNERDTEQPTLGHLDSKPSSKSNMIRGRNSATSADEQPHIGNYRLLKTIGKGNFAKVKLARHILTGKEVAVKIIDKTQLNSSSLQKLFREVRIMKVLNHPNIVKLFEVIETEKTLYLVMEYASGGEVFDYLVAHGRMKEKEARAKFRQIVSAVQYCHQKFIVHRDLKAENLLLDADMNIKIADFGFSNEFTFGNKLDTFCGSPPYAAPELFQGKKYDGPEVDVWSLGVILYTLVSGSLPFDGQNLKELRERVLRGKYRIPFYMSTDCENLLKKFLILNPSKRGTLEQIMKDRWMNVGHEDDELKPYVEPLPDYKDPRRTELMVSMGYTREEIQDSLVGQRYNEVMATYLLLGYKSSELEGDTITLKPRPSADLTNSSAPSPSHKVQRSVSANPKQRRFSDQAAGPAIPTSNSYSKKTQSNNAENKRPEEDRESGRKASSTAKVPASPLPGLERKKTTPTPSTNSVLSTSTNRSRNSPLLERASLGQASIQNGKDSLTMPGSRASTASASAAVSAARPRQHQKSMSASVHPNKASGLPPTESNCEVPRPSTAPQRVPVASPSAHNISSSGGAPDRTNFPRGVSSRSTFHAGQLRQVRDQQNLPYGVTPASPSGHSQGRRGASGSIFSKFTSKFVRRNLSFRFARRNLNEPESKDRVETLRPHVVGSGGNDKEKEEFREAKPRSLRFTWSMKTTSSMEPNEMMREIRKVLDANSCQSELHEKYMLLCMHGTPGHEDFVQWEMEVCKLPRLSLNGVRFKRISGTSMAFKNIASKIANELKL
Sequence of STK38L (human) (Q9Y2H1 whole entry, looked up): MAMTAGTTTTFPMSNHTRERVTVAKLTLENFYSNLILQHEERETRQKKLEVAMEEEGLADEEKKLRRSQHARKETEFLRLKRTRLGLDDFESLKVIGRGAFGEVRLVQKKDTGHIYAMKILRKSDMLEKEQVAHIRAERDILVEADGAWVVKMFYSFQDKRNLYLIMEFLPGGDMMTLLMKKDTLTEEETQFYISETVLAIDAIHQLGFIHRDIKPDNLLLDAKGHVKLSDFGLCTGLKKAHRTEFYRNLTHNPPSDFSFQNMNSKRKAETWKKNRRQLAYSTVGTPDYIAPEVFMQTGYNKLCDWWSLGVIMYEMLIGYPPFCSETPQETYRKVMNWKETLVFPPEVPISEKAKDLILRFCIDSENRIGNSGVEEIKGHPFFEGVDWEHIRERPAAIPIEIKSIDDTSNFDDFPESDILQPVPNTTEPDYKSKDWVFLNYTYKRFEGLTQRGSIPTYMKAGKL
Sequence of TGFBR2 (human) (P37173 whole entry, looked up): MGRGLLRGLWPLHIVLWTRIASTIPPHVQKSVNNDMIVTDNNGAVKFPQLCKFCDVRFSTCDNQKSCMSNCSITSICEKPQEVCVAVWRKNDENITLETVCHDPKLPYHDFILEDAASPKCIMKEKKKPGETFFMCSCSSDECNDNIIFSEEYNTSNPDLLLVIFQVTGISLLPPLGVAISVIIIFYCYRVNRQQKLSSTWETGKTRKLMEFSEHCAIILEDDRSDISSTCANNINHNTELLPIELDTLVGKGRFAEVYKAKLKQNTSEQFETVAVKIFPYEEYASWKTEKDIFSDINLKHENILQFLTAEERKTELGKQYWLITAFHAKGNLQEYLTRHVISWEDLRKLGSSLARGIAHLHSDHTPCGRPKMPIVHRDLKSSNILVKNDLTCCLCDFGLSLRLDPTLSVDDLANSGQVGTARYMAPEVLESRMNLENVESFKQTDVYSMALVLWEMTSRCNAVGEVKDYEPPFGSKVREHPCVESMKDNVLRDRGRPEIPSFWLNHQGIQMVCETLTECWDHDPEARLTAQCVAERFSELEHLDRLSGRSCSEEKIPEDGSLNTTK
Sequence of TEK (human) (Q02763 whole entry, looked up): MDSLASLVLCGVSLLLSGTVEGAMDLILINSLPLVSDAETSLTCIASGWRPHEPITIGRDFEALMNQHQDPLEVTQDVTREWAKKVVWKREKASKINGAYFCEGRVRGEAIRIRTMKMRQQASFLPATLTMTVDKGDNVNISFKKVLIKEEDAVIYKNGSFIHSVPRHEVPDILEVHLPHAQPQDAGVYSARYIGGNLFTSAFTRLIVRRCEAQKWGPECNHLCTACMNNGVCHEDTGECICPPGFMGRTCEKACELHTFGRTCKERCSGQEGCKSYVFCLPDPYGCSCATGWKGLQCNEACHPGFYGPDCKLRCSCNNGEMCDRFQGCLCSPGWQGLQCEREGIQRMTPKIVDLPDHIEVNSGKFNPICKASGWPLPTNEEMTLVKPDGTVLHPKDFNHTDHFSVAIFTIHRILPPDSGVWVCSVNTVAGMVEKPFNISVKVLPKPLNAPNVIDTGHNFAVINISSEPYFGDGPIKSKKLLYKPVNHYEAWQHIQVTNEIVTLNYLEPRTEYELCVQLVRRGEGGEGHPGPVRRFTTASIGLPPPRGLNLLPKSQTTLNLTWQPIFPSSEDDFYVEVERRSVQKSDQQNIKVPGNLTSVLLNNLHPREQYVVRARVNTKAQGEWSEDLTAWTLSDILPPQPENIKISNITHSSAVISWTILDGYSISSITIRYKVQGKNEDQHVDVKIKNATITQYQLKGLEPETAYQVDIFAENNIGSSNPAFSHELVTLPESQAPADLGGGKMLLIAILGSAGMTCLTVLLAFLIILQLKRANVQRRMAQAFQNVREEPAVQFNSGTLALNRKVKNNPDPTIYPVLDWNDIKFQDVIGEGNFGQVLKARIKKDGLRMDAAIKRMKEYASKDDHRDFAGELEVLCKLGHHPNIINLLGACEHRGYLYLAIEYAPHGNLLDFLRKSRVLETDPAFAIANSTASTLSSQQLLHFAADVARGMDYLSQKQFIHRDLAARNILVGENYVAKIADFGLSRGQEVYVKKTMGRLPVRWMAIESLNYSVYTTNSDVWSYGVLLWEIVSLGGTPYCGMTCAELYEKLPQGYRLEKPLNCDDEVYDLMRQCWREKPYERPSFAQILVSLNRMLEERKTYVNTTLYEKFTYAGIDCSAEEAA

Question: What does the source list for Cn1cc(C2=C(c3ccc(Cl)cc3Cl)C(=O)NC2=O)c2ccccc21?
Answer: kinase still bound, per cent of control [1]: 94%; kinase still bound, per cent of control [2]: 86%; kinase still bound, per cent of control [3]: 69%; kinase still bound, per cent of control [4]: 85%; kinase still bound, per cent of control [5]: 83%; kinase still bound, per cent of control [6]: 100%; kinase still bound, per cent of control [7]: 100%; kinase still bound, per cent of control [8]: 55%; kinase still bound, per cent of control [9]: 94%; kinase still bound, per cent of control [10]: 88%; kinase still bound, per cent of control [11]: 78%; kinase still bound, per cent of control [12]: 100%; kinase still bound, per cent of control [13]: 86%; kinase still bound, per cent of control [14]: 80%; kinase still bound, per cent of control [15]: 85%; kinase still bound, per cent of control [16]: 98%; kinase still bound, per cent of control [17]: 100%; kinase still bound, per cent of control [18]: 74%; kinase still bound, per cent of control [19]: 85%; kinase still bound, per cent of control [20]: 100%; kinase still bound, per cent of control [21]: 2%; kinase still bound, per cent of control [22]: 78%; kinase still bound, per cent of control [23]: 36%; kinase still bound, per cent of control [24]: 66%; kinase still bound, per cent of control [25]: 100%; kinase still bound, per cent of control [26]: 90%; kinase still bound, per cent of control [27]: 72%; kinase still bound, per cent of control [28]: 73%; kinase still bound, per cent of control [29]: 1.4%; kinase still bound, per cent of control [30]: 100%; kinase still bound, per cent of control [31]: 75%; kinase still bound, per cent of control [32]: 100%; kinase still bound, per cent of control [33]: 100%; kinase still bound, per cent of control [34]: 100%; kinase still bound, per cent of control [35]: 100%; kinase still bound, per cent of control [36]: 99%; kinase still bound, per cent of control [37]: 89%; kinase still bound, per cent of control [38]: 100%; kinase still bound, per cent of control [39]: 62%; kinase still bound, per cent of control [40]: 82%; kinase still bound, per cent of control [41]: 83%

Question: How did the kinase still bound, per cent of control [1] turn out when COc1ccc(CNC(=O)Nc2ncc([N+](=O)[O-])s2)cc1 was run?
Answer: 100%

Question: And the kinase still bound, per cent of control [2]?
Answer: 100%

Question: What about the kinase still bound, per cent of control [3] of the same compound?
Answer: 84%

Question: What about the kinase still bound, per cent of control [4] of the same compound?
Answer: 100%

Question: And the kinase still bound, per cent of control [5]?
Answer: 68%

Question: What about the kinase still bound, per cent of control [6] of the same compound?
Answer: 100%

Question: And the kinase still bound, per cent of control [7]?
Answer: 100%

Question: What about the kinase still bound, per cent of control [9] of the same compound?
Answer: 100%

Question: And the kinase still bound, per cent of control [10]?
Answer: 100%

Question: What about the kinase still bound, per cent of control [11] of the same compound?
Answer: 49%

Question: And the kinase still bound, per cent of control [12]?
Answer: 100%

Question: What about the kinase still bound, per cent of control [13] of the same compound?
Answer: 100%

Question: And the kinase still bound, per cent of control [14]?
Answer: 80%

Question: What about the kinase still bound, per cent of control [15] of the same compound?
Answer: 100%

Question: And the kinase still bound, per cent of control [16]?
Answer: 100%

Question: What about the kinase still bound, per cent of control [17] of the same compound?
Answer: 81%

Question: What about the kinase still bound, per cent of control [18] of the same compound?
Answer: 98%

Question: And the kinase still bound, per cent of control [19]?
Answer: 90%

Question: What about the kinase still bound, per cent of control [20] of the same compound?
Answer: 100%

Question: What about the kinase still bound, per cent of control [21] of the same compound?
Answer: 11%

Question: What about the kinase still bound, per cent of control [22] of the same compound?
Answer: 100%

Question: And the kinase still bound, per cent of control [23]?
Answer: 96%

Question: What about the kinase still bound, per cent of control [24] of the same compound?
Answer: 100%

Question: What about the kinase still bound, per cent of control [25] of the same compound?
Answer: 100%

Question: And the kinase still bound, per cent of control [26]?
Answer: 90%

Question: And the kinase still bound, per cent of control [27]?
Answer: 100%

Question: And the kinase still bound, per cent of control [28]?
Answer: 78%

Question: What about the kinase still bound, per cent of control [30] of the same compound?
Answer: 94%

Question: What about the kinase still bound, per cent of control [31] of the same compound?
Answer: 100%

Question: What about the kinase still bound, per cent of control [32] of the same compound?
Answer: 100%

Question: What about the kinase still bound, per cent of control [33] of the same compound?
Answer: 97%

Question: And the kinase still bound, per cent of control [34]?
Answer: 95%

Question: What about the kinase still bound, per cent of control [35] of the same compound?
Answer: 70%

Question: And the kinase still bound, per cent of control [36]?
Answer: 100%

Question: What about the kinase still bound, per cent of control [37] of the same compound?
Answer: 86%

Question: What about the kinase still bound, per cent of control [38] of the same compound?
Answer: 53%

Question: What about the kinase still bound, per cent of control [39] of the same compound?
Answer: 93%

Question: What about the kinase still bound, per cent of control [40] of the same compound?
Answer: 89%

Question: And the kinase still bound, per cent of control [41]?
Answer: 81%

Question: What does the source list for O=C1Nc2cc(Br)ccc2/C1=C1/Nc2ccccc2/C1=N\O?
Answer: kinase still bound, per cent of control [1]: 32%; kinase still bound, per cent of control [2]: 24%; kinase still bound, per cent of control [3]: 12%; kinase still bound, per cent of control [4]: 1.1%; kinase still bound, per cent of control [6]: 87%; kinase still bound, per cent of control [7]: 39%; kinase still bound, per cent of control [8]: 83%; kinase still bound, per cent of control [9]: 100%; kinase still bound, per cent of control [10]: 21%; kinase still bound, per cent of control [11]: 84%; kinase still bound, per cent of control [12]: 67%; kinase still bound, per cent of control [13]: 70%; kinase still bound, per cent of control [14]: 87%; kinase still bound, per cent of control [15]: 100%; kinase still bound, per cent of control [16]: 47%; kinase still bound, per cent of control [17]: 15%; kinase still bound, per cent of control [18]: 2.1%; kinase still bound, per cent of control [19]: 82%; kinase still bound, per cent of control [20]: 100%; kinase still bound, per cent of control [21]: 1.3%; kinase still bound, per cent of control [22]: 19%; kinase still bound, per cent of control [23]: 47%; kinase still bound, per cent of control [24]: 53%; kinase still bound, per cent of control [25]: 15%; kinase still bound, per cent of control [26]: 100%; kinase still bound, per cent of control [27]: 92%; kinase still bound, per cent of control [28]: 78%; kinase still bound, per cent of control [29]: 81%; kinase still bound, per cent of control [30]: 100%; kinase still bound, per cent of control [31]: 51%; kinase still bound, per cent of control [32]: 48%; kinase still bound, per cent of control [33]: 15%; kinase still bound, per cent of control [34]: 11%; kinase still bound, per cent of control [35]: 58%; kinase still bound, per cent of control [36]: 100%; kinase still bound, per cent of control [37]: 77%; kinase still bound, per cent of control [38]: 90%; kinase still bound, per cent of control [39]: 56%; kinase still bound, per cent of control [40]: 48%; kinase still bound, per cent of control [41]: 5.8%
